Experimental data reported in patent publication US11084818B2 (HEPO PHARMACEUTICAL CO., LTD., priority 2016, dated 2021).

Experiments:
hTLR7 = target: T1, hTLR7 (Homo sapiens, UniProt Q9NYK1); experiment: Activation activity test of hTLR7 (HEK-Blue hTLR7 cells, QUANTI-Blue OD650); type: cell-based; conditions: 24 hours incubation, read-out: TLR7 (EC50)
T1 construct: host or cells: HEK-Blue hTLR7 (HEK293-derived reporter line)
T1 sequence (Q9NYK1 27-1049): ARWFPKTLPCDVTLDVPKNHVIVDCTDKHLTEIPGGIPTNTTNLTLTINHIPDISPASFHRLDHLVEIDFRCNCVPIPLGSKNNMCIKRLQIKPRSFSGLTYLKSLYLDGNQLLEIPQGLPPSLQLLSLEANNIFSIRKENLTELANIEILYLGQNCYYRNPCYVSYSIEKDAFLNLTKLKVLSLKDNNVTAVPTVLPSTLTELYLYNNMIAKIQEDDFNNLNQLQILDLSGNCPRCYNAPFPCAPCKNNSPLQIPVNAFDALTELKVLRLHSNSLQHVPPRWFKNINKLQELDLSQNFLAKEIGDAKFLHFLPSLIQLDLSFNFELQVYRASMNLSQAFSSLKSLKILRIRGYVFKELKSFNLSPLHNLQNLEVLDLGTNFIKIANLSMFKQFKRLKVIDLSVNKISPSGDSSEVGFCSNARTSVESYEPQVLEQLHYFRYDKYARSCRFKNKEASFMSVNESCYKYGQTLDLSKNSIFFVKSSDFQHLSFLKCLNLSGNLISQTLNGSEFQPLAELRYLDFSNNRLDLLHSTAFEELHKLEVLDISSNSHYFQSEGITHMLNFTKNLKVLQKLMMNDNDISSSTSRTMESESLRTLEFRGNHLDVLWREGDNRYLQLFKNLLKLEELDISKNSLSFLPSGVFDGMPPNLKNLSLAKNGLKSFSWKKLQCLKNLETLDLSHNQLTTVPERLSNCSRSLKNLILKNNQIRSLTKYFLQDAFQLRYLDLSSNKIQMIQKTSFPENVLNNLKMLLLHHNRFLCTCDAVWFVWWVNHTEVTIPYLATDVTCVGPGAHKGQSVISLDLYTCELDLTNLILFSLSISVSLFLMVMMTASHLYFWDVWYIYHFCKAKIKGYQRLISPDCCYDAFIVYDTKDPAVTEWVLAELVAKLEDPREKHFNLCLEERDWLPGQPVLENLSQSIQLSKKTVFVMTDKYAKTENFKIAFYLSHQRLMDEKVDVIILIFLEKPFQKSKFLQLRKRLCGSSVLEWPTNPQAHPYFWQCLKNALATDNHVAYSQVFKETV
Experimental: (§1) Effect Example 1: Activation Activity Test of hTLR7 and hTLR8
(§2) Cell lines: HEK-Blue™ hTLR7 and HEK-Blue™ hTLR8 (InvivoGen Co.)
(§3) Primary reagents: QUANTI-Blue™ (InvivoGen) and ATPlite 1 Step (PerkinElmer)
(§4) Primary instruments: Automatic Liquid Handling Workstation (Labcyte, Model: Echo), Cell Counter (Countstar, IC1000) and Multifunctional Enzyme Marker (Molecular Device, Flexstation III).
(§5) 2.1 The tested compounds were formulated into a 60 mM concentrated stock solution in DMSO and stored in a nitrogen cabinet.
(§6) 2.3 The T150 cultured cells were taken out from the CO2 incubator and the cell culture supernatant was discarded. The cells were washed with PBS once, followed by addition of about 10 mL of the culture solution. The cells were dissociated by patting the cell culture flask, and gently blown to even by a pipette.
(§7) The cells were counted, and the cell suspension was adjusted to 200,000 cells/mL by the culture solution. Thereafter, 200 μL of diluted cells was added to each well in a 96-well plate containing the compound (40,000 cells/well).
(§8) 2.4 The compounds and cells were incubated in a 5% CO2 incubator at 37° C. for 24 hours.
(§9) 2.5 Compound activity assay: 20 μl of the cell supernatant of each well after induction was added to a cell culture plate containing 180 μL of reagent QUANTI-Blue™, and incubated at 37° C. for 1.5 hours. Thereafter, the optical density absorption (OD650) of each well at 650 nm was measured using a Multifunctional Enzyme Marker: Flexstation III.
(§10) 2.6 Compound Activity: OD650 values were analyzed using GraphPad Prism software and the dose-response curves for the compound were fitted to calculate the EC50 values of the compound.

hTLR8 = target: T2, hTLR8 (Homo sapiens, UniProt Q9NR97); experiment: Activation activity test of hTLR8 (HEK-Blue hTLR8 cells, QUANTI-Blue OD650); type: cell-based; conditions: for EC50: HEK-Blue hTLR8 cells, 24 hours incubation, read-out: TLR8 (EC50)
T2 construct: host or cells: HEK-Blue hTLR8 (HEK293-derived reporter line)
T2 sequence (Q9NR97 27-1041): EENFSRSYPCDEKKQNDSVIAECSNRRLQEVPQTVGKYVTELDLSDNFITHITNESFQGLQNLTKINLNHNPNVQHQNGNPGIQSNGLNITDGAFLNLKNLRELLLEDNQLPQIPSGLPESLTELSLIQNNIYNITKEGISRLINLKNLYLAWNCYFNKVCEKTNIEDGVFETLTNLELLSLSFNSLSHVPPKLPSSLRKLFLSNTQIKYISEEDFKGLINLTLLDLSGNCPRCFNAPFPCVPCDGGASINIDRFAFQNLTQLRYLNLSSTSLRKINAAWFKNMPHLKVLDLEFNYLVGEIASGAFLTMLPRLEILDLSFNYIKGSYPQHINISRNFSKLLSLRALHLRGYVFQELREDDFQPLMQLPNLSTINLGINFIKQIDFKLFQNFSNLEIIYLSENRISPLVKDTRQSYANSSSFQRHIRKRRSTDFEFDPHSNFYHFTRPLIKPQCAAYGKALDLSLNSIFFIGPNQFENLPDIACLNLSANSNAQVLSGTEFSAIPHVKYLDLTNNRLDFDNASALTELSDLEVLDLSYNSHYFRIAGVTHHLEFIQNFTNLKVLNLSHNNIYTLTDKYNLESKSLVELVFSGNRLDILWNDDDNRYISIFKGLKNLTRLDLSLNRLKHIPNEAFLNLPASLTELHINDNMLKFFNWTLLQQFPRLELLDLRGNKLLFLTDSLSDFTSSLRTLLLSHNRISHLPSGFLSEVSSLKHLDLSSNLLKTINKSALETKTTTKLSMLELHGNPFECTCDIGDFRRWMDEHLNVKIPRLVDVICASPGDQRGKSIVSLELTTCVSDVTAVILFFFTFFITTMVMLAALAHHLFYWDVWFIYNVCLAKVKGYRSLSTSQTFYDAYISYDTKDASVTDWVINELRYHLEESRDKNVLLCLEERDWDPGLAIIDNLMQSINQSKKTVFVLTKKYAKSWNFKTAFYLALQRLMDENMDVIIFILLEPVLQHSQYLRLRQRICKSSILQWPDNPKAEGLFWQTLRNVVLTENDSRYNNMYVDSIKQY
Experimental: as §1, §2, §3, §4, §5, §6, §7, §8, §9, §10

| EC50 (hTLR7) [µM] | EC50 (hTLR8) [µM] | agonistic activity against TLR8 (hTLR8; in words, from Table 1) | SMILES |
| --- | --- | --- | --- |
| 10 to 100 | > 100 |  | COCCOc1ncc2[nH]c(=O)n(Cc3ccc(CN4CC[C@@H](O)C4)cc3)c2n1 [Example 6, (R)-9-(4-((3-hydroxypyrrolidin-1-yl)methyl)benzyl)-2-(2-methoxyethoxy)-7,9-dihydro-8H-purin-8-one] |
| 1 to 10 | > 100 |  | CC(C)OCCOc1ncc2[nH]c(=O)n(Cc3ccc(CN4CCCC4)cc3)c2n1 [Example 64, 9-(4-(pyrrolidin-1-ylmethyl)benzyl)-2-(2-isopropoxyethoxy)-7,9-dihydro-8H-purin-8-one] |
| 10 to 100 | > 100 |  | COCCOc1ncc2[nH]c(=O)n(Cc3ccc(CN4CCC[C@H]4C(=O)OC)cc3)c2n1 [Example 8, methyl (4-((2-(2-methoxyethoxy)-8-oxo-7,8-dihydro-9H-purin-9-yl)methyl)benzyl)-L-pyrrolidine-2-carboxylate] |
| 0.001 to 1 | > 100 |  | COCCOc1ncc2[nH]c(=O)n(Cc3ccc([C@@H](C)N4CCCC4)cc3)c2n1 [Example 42, (R)-2-(2-methoxyethoxy)-9-(4-(1-(pyrrolidin-1-yl)ethyl)benzyl)-7,9-dihydro-8H-purin-8-one] |
| 1 to 10 | > 100 |  | COCCOc1ncc2[nH]c(=O)n(Cc3ccc(CN4CCCCC4)cc3)c2n1 [Example 3, 2-(2-methoxyethoxy)-9-(4-(piperidin-1-ylmethyl)benzyl)-7,9-dihydro-8H-purin-8-one] |
| 1 to 10 | > 100 |  | COCCOc1ncc2[nH]c(=O)n(Cc3ccc(CN4C5CCC4CC5)cc3)c2n1 [Example 53, 9-(4-((7-azabicyclo[2.2.1]heptan-7-yl)methyl)benzyl)-2-(2-methoxyethoxy)-7,9-dihydro-8H-purin-8-one] |
| 10 to 100 | > 100 |  | COCCOc1ncc2[nH]c(=O)n(Cc3cccc(CN4CCCCCC4)c3)c2n1 [Example 21, 2-(2-methoxyethoxy)-9-(3-(azepan-1-ylmethyl)benzyl)-7,9-dihydro-8H-purin-8-one] |
| > 100 | > 100 |  | COCCOc1ncc2[nH]c(=O)n(CCc3ccc(CN4CCCC4)cc3)c2n1 [Example 67, 9-(4-(pyrrolidin-1-ylmethyl)phenethyl)-2-(2-methoxyethoxy)-7,9-dihydro-8H-purin-8-one] |
| 10 to 100 | > 100 |  | COCCOc1cc2c(cn1)[nH]c(=O)n2Cc1ccc(CN2CCCC2)cc1 [Example 39, 6-(2-methoxyethoxy)-1-(4-(pyrrolidin-1-ylmethyl)benzyl)-1,3-dihydro-2H-imidazole-[4,5-c]pyridin-2-one] |
| 1 to 10 | > 100 |  | COCCOc1ncc2[nH]c(=O)n(Cc3ccc(CN(C)C)cc3)c2n1 [Example 9, 9-(4-((dimethylamino)methyl)benzyl)-2-(2-methoxyethoxy)-7,9-dihydro-8H-purin-8-one] |
| > 100 | > 100 |  | COCCNc1ncc2[nH]c(=O)n(Cc3cccc(CN4CCCC4)c3)c2n1 [Example 32, 2-((2-methoxyethyl)amine)-9-(3-(pyrrolidin-1-ylmethyl)benzyl)-7,9-dihydro-8H-purin-8-one] |
| > 100 | > 100 |  | COCCOc1nc(C)c2[nH]c(=O)n(Cc3ccc(CN4CCCC4)cc3)c2n1 [Example 58, 9-(4-(pyrrolidin-1-ylmethyl)benzyl)-6-methyl-2-(2-methoxyethoxy)-7,9-dihydro-8H-purin-8-one] |
| > 100 | > 100 |  | COCCOc1ncc2c(n1)n(Cc1ccc(CN3CCCC3)cc1)c(=O)n2C [Example 56, 9-(4-(pyrrolidin-1-ylmethyl)benzyl)-7-methyl-2-(2-methoxyethoxy)-7,9-dihydro-8H-purin-8-one] |
| > 100 | > 100 |  | COCCOCCOc1ncc2[nH]c(=O)n(Cc3cccc(CN4CCCC4)c3)c2n1 [Example 30, 2-(2-(2-methoxyethoxy)ethoxy)-9-(3-(pyrrolidin-1-ylmethyl)benzyl)-7,9-dihydro-8H-purin-8-one] |
| 1 to 10 | > 100 |  | O=c1[nH]c2cnc(OCC3CCCO3)nc2n1Cc1ccc(CN2CCCC2)cc1 (centres unmarked) [Example 46, 9-(4-(pyrrolidin-1-ylmethyl)benzyl)-2-((tetrahydrofuran-2-yl)methoxy)-7,9-dihydro-8H-purin-8-one] |
| 0.001 to 1 | > 100 |  | COCCOc1ncc2[nH]c(=O)n(Cc3ccc(C(C)N4CCCC4)cc3)c2n1 (centres unmarked) [Example 14, 2-(2-methoxyethoxy)-9-(4-(1-(pyrrolidin-1-yl)ethyl)benzyl)-7,9-dihydro-8H-purin-8-one] |
| 10 to 100 | > 100 |  | COCCOc1ncc2[nH]c(=O)n(Cc3cccc(CN4CCC[C@@H]4C(=O)OC)c3)c2n1 [Example 23, methyl (3-((2-(2-methoxyethoxy)-8-oxo-7,8-dihydro-9H-purin-9-yl)methyl)benzyl)-D-pyrrolidine-2-carboxylate] |
| 0.001 to 1 | > 100 |  | COCCOc1ncc2[nH]c(=O)n(Cc3ccc([C@H](C)N4CCCC4)cc3)c2n1 [Example 41, (S)-2-(2-methoxyethoxy)-9-(4-(1-(pyrrolidin-1-yl)ethyl)benzyl)-7,9-dihydro-8H-purin-8-one] |
| 1 to 10 | > 100 |  | COCCOc1ncc2[nH]c(=O)n(Cc3ccc(CN4CC5CC(C5)C4)cc3)c2n1 [Example 52, 9-(4-((3-azabicyclo[3.1.1]heptan-3-yl)methyl)benzyl)-2-(2-methoxyethoxy)-7,9-dihydro-8H-purin-8-one] |
|  |  | strong agonistic activity | CCOCc1nc2c(N)nc3ccccc3c2n1CC(C)(C)O [Example R848, reference compound] |

| SMILES | EC50 (hTLR7) [µM] | EC50 (hTLR8) [µM] | agonistic activity against TLR8 (hTLR8; in words, from Table 1) |
| --- | --- | --- | --- |
| CCCCOc1ncc2[nH]c(=O)n(Cc3cccc(CN4CCCC4)c3)c2n1 [Example 27, 2-butoxy-9-(3-(pyrrolidin-1-ylmethyl)benzyl)-7,9-dihydro-8H-purin-8-one] | > 100 | 10 to 100 |  |
